In ChEMBL document CHEMBL1201862, “PubChem BioAssay data set” (2004):
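Briefly, cells in 96-well plates were exposed to five compound concentrations for 48 h, and endpoints were estimated by linear interpolation. GI50: concentration for 50% inhibition of growth.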 Calls of active or inactive are those of the source. No stated cut-off is given here; in the data, active = GI50 up to about 1.1 µM and inactive = higher.

Key:
Experiment in all cases: NCI tumour cell line growth inhibition, 48 h
XF498 = system: XF498
DMS-114 = system: DMS-114
M19-MEL = system: M19-MEL
LXFL 529 = system: LXFL 529
DLD-1 = system: DLD-1
SNB-78 = system: SNB-78
HOP-18 = system: HOP-18
RXF 631 = system: RXF 631
KM-20L2 = system: KM-20L2

| SMILES | GI50 (XF498) | GI50 (DMS-114) | GI50 (M19-MEL) | GI50 (LXFL 529) | GI50 (DLD-1) | GI50 (SNB-78) | GI50 (HOP-18) | GI50 (RXF 631) | GI50 (KM-20L2) |
| --- | --- | --- | --- | --- | --- | --- | --- | --- | --- |
| COc1ccc(C(C2=C(C)C(=O)c3ccccc3C2=O)c2ccc(C(C)C)cc(=O)c2O)cc1 (stereo unspecified) | 0.685 µM (active) | 2.82 µM (inactive) | 2.22 µM (inactive) | 4.06 µM (inactive) | 4.79 µM (inactive) | 5.41 µM (inactive) |  |  |  |
| COc1cc(/C=C/C(=O)c2sc(-n3nc(-c4ccccc4)cc3-c3ccccc3)nc2C)ccc1O |  | 5.35 µM (inactive) | > 100 µM (inactive) |  | > 100 µM (inactive) | > 100 µM (inactive) | 26.5 µM (inactive) | > 100 µM (inactive) | > 100 µM (inactive) |
| OC(c1ccccc1)(c1ccccc1)c1ccccn1 | > 100 µM (inactive) | 72.9 µM (inactive) | > 100 µM (inactive) | > 100 µM (inactive) | > 100 µM (inactive) | > 100 µM (inactive) | > 100 µM (inactive) | > 100 µM (inactive) | > 100 µM (inactive) |
| CC(C)OC(=O)Nc1c([N+](=O)[O-])cc(C(F)(F)F)cc1[N+](=O)[O-] | 28.1 µM (inactive) |  |  | > 100 µM (inactive) | > 100 µM (inactive) | > 50 µM (inactive) | 21.6 µM (inactive) |  | > 100 µM (inactive) |
| N#CC1(C#N)C2C=CC(c3coc4cccc2c34)C1(C#N)C#N (stereo unspecified) | 4.99 µM (inactive) | 5.11 µM (inactive) | 3.05 µM (inactive) | 8.87 µM (inactive) | 2.02 µM (inactive) | 15.8 µM (inactive) | 16.6 µM (inactive) |  | 18.5 µM (inactive) |
| COc1cc(CC(=O)c2cc3c(cc2-c2ccccc2)OCO3)cc(OC)c1OC | 17.1 µM (inactive) | 16.6 µM (inactive) |  | 9.38 µM (inactive) | 81.1 µM (inactive) | 25.8 µM (inactive) | 16 µM (inactive) |  | 96.6 µM (inactive) |
| CC1=C(C)C(=O)c2c(cc3c4ccccc4ccn23)C1=O | 63.8 µM (inactive) | > 100 µM (inactive) | > 100 µM (inactive) |  | > 100 µM (inactive) |  | > 100 µM (inactive) |  | > 100 µM (inactive) |
| C/C=C1\Oc2ccc(OC)cc2S1(=O)=O |  | > 100 µM (inactive) | > 100 µM (inactive) | > 100 µM (inactive) | > 100 µM (inactive) | > 100 µM (inactive) | > 100 µM (inactive) |  | > 100 µM (inactive) |
| CCOC(=O)c1cc2c3c(c(O)c(OC)c2s1)N(C(=O)c1cc2c4c(c(O)c(OC)c2s1)N(C(C)=O)CC4)CC3 | 32.1 µM (inactive) | > 100 µM (inactive) | > 100 µM (inactive) | 93.3 µM (inactive) | > 100 µM (inactive) | > 100 µM (inactive) | > 100 µM (inactive) | 9.08 µM (inactive) | > 100 µM (inactive) |
| CCCCCCCCCCCCCCCC(=O)OCC1OC(N2C(=O)/C(=N\NC(N)=S)c3ccc([N+](=O)[O-])cc32)C(OC(C)=O)C1OC(C)=O (stereo unspecified) | > 100 µM (inactive) | 66.7 µM (inactive) | > 100 µM (inactive) | 38.7 µM (inactive) | 77.1 µM (inactive) | > 100 µM (inactive) | > 100 µM (inactive) | > 100 µM (inactive) | 57.3 µM (inactive) |
| CC(C)CC1CC2C(=O)N(c3ccccc3)C(=O)C2c2[nH]c3ccccc3c21 (stereo unspecified) | 20.3 µM (inactive) | 15.9 µM (inactive) | 34.2 µM (inactive) | 60 µM (inactive) | 29 µM (inactive) | > 74.3 µM (inactive) | 11.4 µM (inactive) | 15.2 µM (inactive) | > 100 µM (inactive) |
| O=C1C2=C(c3ccccc31)C(c1ccccc1Cl)N1C(=O)CCSC1=N2 (stereo unspecified) | 79.3 µM (inactive) | > 100 µM (inactive) | > 100 µM (inactive) |  | > 100 µM (inactive) |  |  | > 100 µM (inactive) | > 100 µM (inactive) |
| C=C(CN(CC(=C)C(=O)c1ccccc1)C(C)(C)C)C(=O)c1ccccc1 | 6.58 µM (inactive) | 16.9 µM (inactive) | 15.7 µM (inactive) | 3.84 µM (inactive) | 2.9 µM (inactive) | 25.5 µM (inactive) | 5.42 µM (inactive) |  | 18.7 µM (inactive) |
| COC1CCC(=C2C(=O)OC(C)(C)OC2=O)N1 (stereo unspecified) | > 100 µM (inactive) | > 100 µM (inactive) | > 100 µM (inactive) | > 100 µM (inactive) | > 100 µM (inactive) |  | > 100 µM (inactive) |  | > 100 µM (inactive) |
| C=CCSc1ncnc2c1ncn2C1OC(CO)C(O)C1O (stereo unspecified) | > 100 µM (inactive) | 11.4 µM (inactive) | > 100 µM (inactive) |  | 2.75 µM (inactive) | > 100 µM (inactive) | > 100 µM (inactive) |  | 55.7 µM (inactive) |
| Cc1cc2c(=O)cc(-c3ccc(O)cc3)oc2c(C(=O)O)c1C | > 100 µM (inactive) | > 100 µM (inactive) | > 100 µM (inactive) | > 100 µM (inactive) | > 100 µM (inactive) | > 100 µM (inactive) | > 100 µM (inactive) |  | > 100 µM (inactive) |
| CCN(CC)c1ccc(Cl)c2c1C(O)(C(C)C)C2(C)C (stereo unspecified) |  | 21.2 µM (inactive) | 14.7 µM (inactive) | 17 µM (inactive) | 17.4 µM (inactive) | 28.2 µM (inactive) | 14 µM (inactive) |  | 14 µM (inactive) |
| Nc1nc2c3nc(Nc4ccccc4)sc3nc(=S)n2c2sc(Nc3ccccc3)nc12 | 1.98 µM (inactive) | 20.3 µM (inactive) | 13.4 µM (inactive) | 4.18 µM (inactive) | > 100 µM (inactive) | 22.5 µM (inactive) | 36.1 µM (inactive) |  | > 100 µM (inactive) |
| Cc1c(C(=O)/C=C/C=C/c2ccccc2)[n+]([O-])c2ccccc2[n+]1[O-] | 35 µM (inactive) | 25.6 µM (inactive) | 34.3 µM (inactive) | 18 µM (inactive) | 14.5 µM (inactive) | 42 µM (inactive) | 45.2 µM (inactive) |  | 38 µM (inactive) |
| COc1cc(OC)c2c(=O)c3cccc([N+](=O)[O-])c3n(C)c2c1 | > 100 µM (inactive) | 69.2 µM (inactive) |  | > 100 µM (inactive) |  | > 100 µM (inactive) | < 0.01 µM (active) | 34.5 µM (inactive) | > 100 µM (inactive) |
| COc1cccc2c1C(=O)c1c(O)c3c(c(O)c1C2=O)C[C@@](O)(C(C)=O)C[C@@H]3OC1OC(C)C(O)C(N)C1Br (stereo partly specified) | 0.129 µM (active) | 0.0316 µM (active) | 0.116 µM (active) | 0.0601 µM (active) | 0.0259 µM (active) | 0.105 µM (active) | 0.0404 µM (active) |  | 0.232 µM (active) |
| [O-][S+](Cc1ccccc1)c1nc2ccccc2nc1-c1cccs1 (stereo unspecified) | 2.52 µM (inactive) | 2.5 µM (inactive) | 5.77 µM (inactive) | 3.22 µM (inactive) | 11 µM (inactive) | 22 µM (inactive) | 15.9 µM (inactive) |  |  |
| CCCCC(C(=O)C(=O)Nc1ccccc1CC)C(=O)C(C)C (stereo unspecified) | > 100 µM (inactive) | > 100 µM (inactive) | > 100 µM (inactive) | > 100 µM (inactive) | > 100 µM (inactive) | > 100 µM (inactive) |  | > 100 µM (inactive) | > 100 µM (inactive) |
| Cc1ccc2c(c1)-c1c3c(nn1C)-c1ccccc1SC3O2 (stereo unspecified) | 23.4 µM (inactive) | 32.3 µM (inactive) | 81.3 µM (inactive) | 30.7 µM (inactive) | > 100 µM (inactive) | > 100 µM (inactive) | 8.43 µM (inactive) |  | 87.7 µM (inactive) |
| CC(C)(C)C1=CC(=C(P(=O)(O)O)P(=O)(O)O)C=C(C(C)(C)C)C1=O |  | > 50 µM (inactive) | > 50 µM (inactive) | > 50 µM (inactive) | > 50 µM (inactive) | > 50 µM (inactive) | > 50 µM (inactive) | > 50 µM (inactive) | > 50 µM (inactive) |
| CC/C(=C(\c1ccccc1)c1ccc(OCC[N+](C)(C)C)cc1)c1ccccc1 [TAMOXIFEN METHYL IODIDE] |  | 9.12 µM (inactive) | 11.6 µM (inactive) | 10 µM (inactive) | 15.6 µM (inactive) | 12.2 µM (inactive) | 13.1 µM (inactive) | 19.6 µM (inactive) | 15.7 µM (inactive) |
